Columns and labels:
[1] = test system: Methicillin Resistant Staphylococcus aureus strain USA 200; experiment: Minimum inhibitory concentration (MIC), CLSI broth micro-dilution, S. aureus; type: cell-based; details: Table 6, MRSA USA 200, cation adjusted Mueller Hinton Broth + 0.002% Tween-80, 35° C., 22 hours
Protocol: In vitro antimicrobial activity of each compound was determined by measuring minimal inhibitor concentrations (MICs) using the broth micro-dilution technique as approved by the Clinical and Laboratory Standards Institute (CLSI) (Methods for Dilution Antimicrobial Susceptibility Tests for Bacteria that Grow Aerobically; Approved Standard-Eighth Edition. CLSI document M07-A8. Wayne, PA: Clinical and Laboratroy Standards; 2009). Antibacterial activity was measure against two strains of bacteria: a Methicillin Resistant Staphylococcus aureus strain USA 200, (S. aureus) and Escherichia coli ATCC 25922 (E. coli), a clinically relevant Gram-negative strain. Cells were inoculated onto plates of Trypyticase Soy Agar or Luria Agar respectively and grown at 35° C. for 20 hours. Inocula suspensions were prepared by scraping cells into 1 mL of testing media (cation adjusted Mueller Hinton Broth supplemented with 0.002% v/v Tween-80) and diluting to a final OD600nm of 0.01.
Test compounds were prepared in DMSO at a concentration of 10 mg/mL. In protocol 1, the compound stocks were diluted into testing media at a concentration of 64 µg/ml and serial 2-fold dilutions were made in the same media, in 96-well U bottom microtiter dishes, for a total of 10 compound concentrations. In protocol 2, the compound stocks were diluted into testing media at a concentration of 4 µg/mL and serial 2-fold dilutions were made in the same media, in 96-well U bottom microtiter dishes, for a total of 10 compound concentrations. In protocol 3, compound stocks were diluted into testing media at a concentration of 0.5 μg/mL, with serial 2-fold dilutions conducted as described above. In protocol 4, compound stocks were diluted into testing media at a concentration of […], with serial 2-fold dilutions conducted as described above. Inocula suspensions were added to the 2-fold serial dilutions of test compounds to a final density of GD OD600nm of 0.0005 and incubated at 35° C. for 22 hours.

[2] = test system: Escherichia coli ATCC 25922; experiment: Minimum inhibitory concentration (MIC), CLSI broth micro-dilution, E. coli; type: cell-based; details: Table 6, cation adjusted Mueller Hinton Broth + 0.002% Tween-80, 35° C.
Outline: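 Colonies grown 20 h at 35° C on Trypticase Soy agar (MRSA) or Luria agar (E. coli) were suspended in cation-adjusted Mueller Hinton broth with 0.002% Tween-80. Suspensions were added at OD600 0.0005 to 10-point twofold compound dilutions, then incubated 22 h at 35° C.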

[3] = Staphylococcus aureus, MRSA / USA200
[4] = Escherichia coli, ATCC25922, 22 h

MIC [1, 3] | MIC [2, 4] | SMILES | MIC [1] | MIC ([2]; 22 hours)
0.016 µM | 0.19 µM | Cc1nc(-c2ccc(S(F)(F)(F)(F)F)cc2)ncc1C(=O)N[C@@H](CCN)C(=O)N(C)[C@@H]1C(=O)N[C@@H](C)C(=O)N[C@H](C(=O)NCC#N)Cc2ccc(OCCN)c(c2)-c2cc1ccc2OCCN (racemic) [Compound 225, rac-(8S,11S,14S)-3,18-bis(2-aminoethoxy)-N-(cyanomethyl)-11-methyl-14-[methyl-[rac-(2S)-4-amino-2-[[4-methyl-2-[4-(pentafluoro-lambda6-sulfanyl)phenyl]pyrimidine-5-carbonyl]amino]butanoyl]amino]-10,13-dioxo-9,12-diazatricyclo[13.3.1.12,6]icosa-1(18),2(20),3,5,15(19),16-hexaene-8-carboxamide] | – | –
0.017 µM | 0.077 µM | CCCC#Cc1ccc(-c2ncc(C(=O)N[C@@H](CCN)C(=O)N(C)[C@@H]3C(=O)N[C@@H](C)C(=O)N[C@H](C(=O)NCC#N)Cc4ccc(OCCN)c(c4)-c4cc3ccc4OCCN)c(C)n2)cc1 (racemic) [Compound 227, rac-(8S,11S,14S)-3,18-bis(2-aminoethoxy)-N-(cyanomethyl)-11-methyl-14-[methyl-[rac-(2S)-4-amino-2-[[4-methyl-2-(4-pent-1-ynylphenyl)pyrimidine-5-carbonyl]amino]butanoyl]amino]-10,13-dioxo-9,12-diazatricyclo[13.3.1.12,6]icosa-1(18),2(20),3,5,15(19),16-hexaene-8-carboxamide] | – | –
0.012 µM | 0.066 µM | Cc1nc(-c2ccc(C3CCCC3)cc2)ncc1C(=O)N[C@@H](CCN)C(=O)N(C)[C@@H]1C(=O)N[C@@H](C)C(=O)N[C@H](C(=O)NCC#N)Cc2ccc(OCCN)c(c2)-c2cc1ccc2OCCN (racemic) [Compound 230, rac-(8S,11S,14S)-3,18-bis(2-aminoethoxy)-N-(cyanomethyl)-11-methyl-14-[methyl-[rac-(2S)-4-amino-2-[[2-(4-cyclopentylphenyl)-4-methyl-pyrimidine-5-carbonyl]amino]butanoyl]amino]-10,13-dioxo-9,12-diazatricyclo[13.3.1.12,6]icosa-1(18),2(20),3,5,15(19),16-hexaene-8-carboxamide] | – | –
0.016 µM | 0.13 µM | Cc1nc(-c2ccc(C3CCCCC3)cc2)ncc1C(=O)N[C@@H](CCN)C(=O)N(C)[C@@H]1C(=O)N[C@@H](C)C(=O)N[C@H](C(=O)NCC#N)Cc2ccc(OCCN)c(c2)-c2cc1ccc2OCCN (racemic) [Compound 233, rac-(8S,11S,14S)-3,18-bis(2-aminoethoxy)-N-(cyanomethyl)-11-methyl-14-[methyl-[rac-(2S)-4-amino-2-[[2-(4-cyclohexylphenyl)-4-methyl-pyrimidine-5-carbonyl]amino]butanoyl]amino]-10,13-dioxo-9,12-diazatricyclo[13.3.1.12,6]icosa-1(18),2(20),3,5,15(19),16-hexaene-8-carboxamide] | – | –
0.0082 µM | 0.066 µM | Cc1nc(-c2ccc3c(c2)CCC3(C)C)ncc1C(=O)N[C@@H](CCN)C(=O)N(C)[C@@H]1C(=O)N[C@@H](C)C(=O)N[C@H](C(=O)NCC#N)Cc2ccc(OCCN)c(c2)-c2cc1ccc2OCCN (racemic) [Compound 234, rac-(8S,11S,14S)-3,18-bis(2-aminoethoxy)-N-(cyanomethyl)-11-methyl-14-[methyl-[rac-(2S)-4-amino-2-[[2-(1,1-dimethylindan-5-yl)-4-methyl-pyrimidine-5-carbonyl]amino]butanoyl]amino]-10,13-dioxo-9,12-diazatricyclo[13.3.1.12,6]icosa-1(18),2(20),3,5,15(19),16-hexaene-8-carboxamide] | – | –
0.0083 µM | 0.27 µM | Cc1nc(-c2cccc(C(C)(C)C)c2)ncc1C(=O)N[C@@H](CCN)C(=O)N(C)[C@@H]1C(=O)N[C@@H](C)C(=O)N[C@H](C(=O)NCC#N)Cc2ccc(OCCN)c(c2)-c2cc1ccc2OCCN (racemic) [Compound 237, rac-(8S,11S,14S)-3,18-bis(2-aminoethoxy)-N-(cyanomethyl)-11-methyl-14-[methyl-[rac-(2S)-4-amino-2-[[2-(3-tert-butylphenyl)-4-methyl-pyrimidine-5-carbonyl]amino]butanoyl]amino]-10,13-dioxo-9,12-diazatricyclo[13.3.1.12,6]icosa-1(18),2(20),3,5,15(19),16-hexaene-8-carboxamide] | – | –

The remaining lines, values behind:

SMILES | MIC [1, 3] | MIC [2, 4] | MIC [1] | MIC ([2]; 22 hours)
Cc1nc(C#CC(C)C)ncc1C(=O)N[C@@H](CCN)C(=O)N(C)[C@@H]1C(=O)N[C@@H](C)C(=O)N[C@H](C(=O)NCC#N)Cc2ccc(OCCN)c(c2)-c2cc1ccc2OCCN (racemic) [Compound 229, rac-(8S,11S,14S)-3,18-bis(2-aminoethoxy)-N-(cyanomethyl)-11-methyl-14-[methyl-[rac-(2S)-4-amino-2-[[4-methyl-2-(3-methylbut-l-ynyl)pyrimidine-5-carbonyl]amino]butanoyl]amino]-10,13-dioxo-9,12-diazatricyclo[13.3.1.12,6]icosa-1(18),2(20),3,5,15(19),16-hexaene-8-carboxamide] | – | – | 0.57 µM | 4.6 µM
Cc1nc(-c2ccc(C3CCOCC3)cc2)ncc1C(=O)N[C@@H](CCN)C(=O)N(C)[C@@H]1C(=O)N[C@@H](C)C(=O)N[C@H](C(=O)NCC#N)Cc2ccc(OCCN)c(c2)-c2cc1ccc2OCCN (racemic) [Compound 231, rac-(8S,11S,14S)-3,18-bis(2-aminoethoxy)-N-(cyanomethyl)-11-methyl-14-[methyl-[rac-(2S)-4-amino-2-[[4-methyl-2-(4-tetrahydropyran-4-ylphenyl)pyrimidine-5-carbonyl]amino]butanoyl]amino]-10,13-dioxo-9,12-diazatricyclo[13.3.1.12,6]icosa-1(18),2(20),3,5,15(19),16-hexaene-8-carboxamide] | 0.35 µM | 1.4 µM | – | –
Cc1nc(-c2cnc(-c3ccc(C(C)(C)C)cc3)nc2)ncc1C(=O)N[C@@H](CCN)C(=O)N(C)[C@@H]1C(=O)N[C@@H](C)C(=O)N[C@H](C(=O)NCC#N)Cc2ccc(OCCN)c(c2)-c2cc1ccc2OCCN (racemic) [Compound 232, rac-(8S,11S,14S)-3,18-bis(2-aminoethoxy)-N-(cyanomethyl)-11-methyl-14-[methyl-[rac-(2S)-4-amino-2-[[2-[2-(4-tert-butylphenyl)pyrimidin-5-yl]-4-methyl-pyrimidine-5-carbonyl]amino]butanoyl]amino]-10,13-dioxo-9,12-diazatricyclo[13.3.1.12,6]icosa-1(18),2(20),3,5,15(19),16-hexaene-8-carboxamide] | 0.015 µM | 0.16 µM | – | –
CCCCc1ccc(-c2ncc(C(=O)N[C@@H](CCN)C(=O)N(C)[C@@H]3C(=O)N[C@@H](C)C(=O)N[C@H](C(=O)NCC#N)Cc4ccc(OCCN)c(c4)-c4cc3ccc4OCCN)c(C)n2)c(Cl)c1 (racemic) [Compound 235, rac-(8S,11S,14S)-3,18-bis(2-aminoethoxy)-N-(cyanomethyl)-11-methyl-14-[methyl-[rac-(2S)-4-amino-2-[[2-(4-butyl-2-chloro-phenyl)-4-methyl-pyrimidine-5-carbonyl]amino]butanoyl]amino]-10,13-dioxo-9,12-diazatricyclo[13.3.1.12,6]icosa-1(18),2(20),3,5,15(19),16-hexaene-8-carboxamide] | 0.016 µM | 0.26 µM | – | –
Cc1nc(-c2ccc(C(C)(C)c3ccccc3)cc2)ncc1C(=O)N[C@@H](CCN)C(=O)N(C)[C@@H]1C(=O)N[C@@H](C)C(=O)N[C@H](C(=O)NCC#N)Cc2ccc(OCCN)c(c2)-c2cc1ccc2OCCN (racemic) [Compound 236, rac-(8S,11S,14S)-3,18-bis(2-aminoethoxy)-N-(cyanomethyl)-11-methyl-14-[methyl-[rac-(2S)-4-amino-2-[[4-methyl-2-[4-(1-methyl-1-phenyl-ethyl)phenyl]pyrimidine-5-carbonyl]amino]butanoyl]amino]-10,13-dioxo-9,12-diazatricyclo[13.3.1.12,6]icosa-1(18),2(20),3,5,15(19),16-hexaene-8-carboxamide] | 0.016 µM | 0.13 µM | – | –
